In ChEMBL document CHEMBL1157537 (J Med Chem, 2008):

Biological target: T1, Estrogen receptor (Homo sapiens) (UniProt P03372)
T1 sequence (whole entry): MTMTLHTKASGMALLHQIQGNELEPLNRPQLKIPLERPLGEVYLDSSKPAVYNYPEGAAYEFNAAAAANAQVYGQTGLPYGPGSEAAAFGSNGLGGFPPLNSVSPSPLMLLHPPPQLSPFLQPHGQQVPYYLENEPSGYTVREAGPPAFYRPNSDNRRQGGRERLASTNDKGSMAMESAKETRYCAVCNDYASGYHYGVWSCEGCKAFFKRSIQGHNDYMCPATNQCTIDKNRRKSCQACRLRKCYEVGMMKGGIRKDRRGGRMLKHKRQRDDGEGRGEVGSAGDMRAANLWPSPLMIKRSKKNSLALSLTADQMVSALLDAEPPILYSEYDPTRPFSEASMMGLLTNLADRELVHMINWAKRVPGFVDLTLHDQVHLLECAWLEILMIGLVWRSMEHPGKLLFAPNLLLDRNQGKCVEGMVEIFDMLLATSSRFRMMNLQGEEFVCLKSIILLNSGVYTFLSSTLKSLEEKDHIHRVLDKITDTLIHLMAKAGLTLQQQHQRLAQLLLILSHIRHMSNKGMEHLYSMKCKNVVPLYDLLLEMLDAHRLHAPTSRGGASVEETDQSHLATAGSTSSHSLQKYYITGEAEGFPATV
Assay: Agonist activity at human estrogen receptor alpha relative to 17-beta-estradiol
Format: functional

## CC1=C[C@@H]([C@@H]2Oc3c(F)cc(F)cc3-c3ccc4c(c32)C(C)=CC(C)(C)N4)CCC1 (stereo in doubt; (-)-5c)
  Efficacy: 5%
